Experiments:
Recombinant mTOR (FRAP1) = target: T1, Recombinant mTOR (FRAP1) (Homo sapiens, UniProt P42345); assay: mTOR in vitro kinase assay (TR-FRET, phosphorylation of GFP-4E-BP1); assay type: biochemical; conditions: for IC50: 8 μM ATP, 400 nM GFP-4E-BP1; for inhibition at 1 µM: 1 uM compound, read-out: mTOR % Inhib@1 uM
T1 construct: purchased Invitrogen
Experimental: Compounds were evaluated for mTOR activity using an in vitro kinase assay.
mTOR activity is measured in vitro by determining the level of phosphorylation of the protein substrate 4EBP-1. The phosphorylation of GFP-4E-BP1 at threonine residue is recognized by Ab Tb-Anti-p4EBP1, which results in time resolved fluorescence energy transfer (TR-FRET) between GFP and Terbium in the Ab-Protein complex.
Recombinant mTOR (FRAP1), Kinase reaction buffer, GFP-4E-BP1 and LanthaScreen Tb-anti-4E-BP1 (pThr46), TR FRET dilution buffer, Kinase Quench Buffer were obtained from Invitrogen.
Kinase reactions were performed in 10 μl volume in Corning white 384 well plates. […] The reaction was initiated by the addition of substrate (GFP-4E-BP1) and ATP at a final conc. of 400 nM and 8 μM ATP in the reaction respectively. The kinase reaction was allowed to proceed for 1 hour at room temperature before a 10 μL preparation of kinase quench buffer and Tb-labeled Antibody in TR-FRET dilution buffer was added. The final concentration of the antibody in the assay well is 2 nM and the final concentration of EDTA is 10 mM. The plate was incubated at room temperature for 1 h.
(§1) FRET signal was read in Envision Multilabel Reader with the following filters:
Excitation-330 nm and Emission 486 nm (donor) and 520 nm (acceptor).
TR FRET Ratio (Fluorescence 520 nm/Fluorescence 486 nm) was plotted against the concentration of inhibitor and data was fit to Non Linear Regression curve fit (sigmoidal dose response curve with variable slope-four parameters) using Graph Pad Prism 5.

[1] = target: T2, PI3 Kinase alpha (p110 alpha/p85 alpha) (Homo sapiens, UniProt P42336); assay: PI3K TR-FRET assay (Transcreener ADP2); assay type: biochemical; conditions: for IC50: PI3K alpha, 1 μM ATP, 50 μM PIP2; for inhibition at 1 µM: 1 uM compound, read-out: PI3K % Inhib@1 uM
T2 construct: purchased Invitrogen
T2 sequence (P42336 whole entry): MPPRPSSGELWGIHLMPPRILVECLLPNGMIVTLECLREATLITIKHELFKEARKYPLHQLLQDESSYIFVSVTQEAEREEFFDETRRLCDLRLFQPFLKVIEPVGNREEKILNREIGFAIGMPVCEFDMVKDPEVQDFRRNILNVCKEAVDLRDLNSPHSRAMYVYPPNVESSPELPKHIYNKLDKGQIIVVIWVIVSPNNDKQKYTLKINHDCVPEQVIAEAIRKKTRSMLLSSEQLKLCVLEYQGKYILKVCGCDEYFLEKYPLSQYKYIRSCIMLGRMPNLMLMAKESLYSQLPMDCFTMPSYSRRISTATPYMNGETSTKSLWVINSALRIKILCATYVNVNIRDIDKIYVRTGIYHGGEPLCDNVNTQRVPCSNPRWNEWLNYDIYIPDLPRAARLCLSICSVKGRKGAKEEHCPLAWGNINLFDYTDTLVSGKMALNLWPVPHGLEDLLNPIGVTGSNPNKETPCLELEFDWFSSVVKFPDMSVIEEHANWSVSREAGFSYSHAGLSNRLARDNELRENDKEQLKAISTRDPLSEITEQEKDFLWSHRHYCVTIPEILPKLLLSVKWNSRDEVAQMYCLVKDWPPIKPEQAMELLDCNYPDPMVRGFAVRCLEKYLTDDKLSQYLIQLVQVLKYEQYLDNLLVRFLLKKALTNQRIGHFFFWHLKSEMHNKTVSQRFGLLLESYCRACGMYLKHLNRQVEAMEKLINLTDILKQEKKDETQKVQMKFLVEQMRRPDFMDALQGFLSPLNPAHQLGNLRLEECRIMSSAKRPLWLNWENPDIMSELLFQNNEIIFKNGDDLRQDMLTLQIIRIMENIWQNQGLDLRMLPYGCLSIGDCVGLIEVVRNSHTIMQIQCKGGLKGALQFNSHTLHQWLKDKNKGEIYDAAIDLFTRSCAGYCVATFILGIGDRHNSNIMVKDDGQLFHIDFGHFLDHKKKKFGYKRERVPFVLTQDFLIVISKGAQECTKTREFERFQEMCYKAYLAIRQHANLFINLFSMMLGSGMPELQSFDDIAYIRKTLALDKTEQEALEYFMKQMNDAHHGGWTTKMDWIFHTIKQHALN
T2 sequence (P27986 whole entry partner): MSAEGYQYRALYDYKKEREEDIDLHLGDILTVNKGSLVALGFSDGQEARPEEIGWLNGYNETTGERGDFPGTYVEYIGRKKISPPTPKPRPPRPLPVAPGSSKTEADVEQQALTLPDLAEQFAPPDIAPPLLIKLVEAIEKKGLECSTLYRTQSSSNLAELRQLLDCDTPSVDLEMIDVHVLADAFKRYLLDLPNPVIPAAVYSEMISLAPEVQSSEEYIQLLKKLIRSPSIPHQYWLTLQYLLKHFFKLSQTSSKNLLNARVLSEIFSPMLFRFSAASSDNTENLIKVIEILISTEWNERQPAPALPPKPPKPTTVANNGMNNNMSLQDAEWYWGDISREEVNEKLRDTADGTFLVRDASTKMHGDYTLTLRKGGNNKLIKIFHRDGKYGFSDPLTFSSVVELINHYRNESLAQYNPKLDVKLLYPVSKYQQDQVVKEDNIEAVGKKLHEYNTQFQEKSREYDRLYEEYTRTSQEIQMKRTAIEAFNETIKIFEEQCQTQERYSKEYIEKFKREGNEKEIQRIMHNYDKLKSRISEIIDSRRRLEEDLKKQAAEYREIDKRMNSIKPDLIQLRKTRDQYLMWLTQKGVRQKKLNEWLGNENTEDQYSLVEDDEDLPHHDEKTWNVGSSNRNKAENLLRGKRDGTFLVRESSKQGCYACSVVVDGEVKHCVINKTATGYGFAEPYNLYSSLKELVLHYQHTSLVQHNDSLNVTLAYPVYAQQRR
Experimental: Enzymatic activity of PI3K alpha was measured using Time resolved Fluorescence resonance energy transfer (TR-FRET) assay. This assay utilizes ADP detection as a means to screen inhibitor potency of compounds. The Transcreener ADP2 TR-FRET Red Assay is a competitive immunoassay for ADP with a far-red, TR-FRET readout and it has been used for this purpose. The assay can be used for any enzyme class that produces ADP (Kinases, ATPases). It consists of ADP HiLyte647 Tracer, ADP^2 Antibody-Tb conjugate (800 nM), stop & detect buffer, 5 mM ATP, 5 mM ADP. The ADP HiLyte647 Tracer is bound to an ADP^2 Antibody-Tb conjugate. The excitation of the terbium complex in the UV range results in energy transfer to the tracer and emission at a higher wavelength after a time delay ADP produced by the target enzyme displaces the tracer which causes decrease in TR-FRET.
The reaction buffer used for the assay was 50 mM HEPES, pH 7.4.3 mM MgCl2, 0.05% CHAPS, 50 mM NaCl, 2 mM DTT, 1 mM EGTA. PI3 Kinase alpha (p110 alpha/p85 alpha) and PIP2 Substrate (diC8,) were procured from Invitrogen and Echelon respectively.
Kinase reactions were performed in 10 μl volume in Corning white 384 well plates. […] Reaction was initiated by the addition of substrate (PIP2) and ATP at final conc. of 50 μM and 1 μM ATP in the reaction respectively. Kinase reactions were allowed to proceed for 1 hour at room temperature before a 10 μL preparation of Transcreener ADP detection mix was added. Plate was incubated at room temperature for 1 hr. ADP-ATP standard curves were also prepared.
as §1
Excitation-330 nm and Emission 615 nm (donor) and 665 nm (acceptor). TR FRET Ratio (Fluorescence 665 nm/Fluorescence 615 nm) was converted to amount of product formed using the standard curve generated. Percentage inhibition was calculated and plotted against the concentration of inhibitor and data was fit to Non Linear Regression curve fit (sigmoidal dose response curve with variable slope-four parameters) using Graph pad prism 5 and IC50 was calculated for the compound.

T1 sequence (P42345 1360-2549 limits assumed): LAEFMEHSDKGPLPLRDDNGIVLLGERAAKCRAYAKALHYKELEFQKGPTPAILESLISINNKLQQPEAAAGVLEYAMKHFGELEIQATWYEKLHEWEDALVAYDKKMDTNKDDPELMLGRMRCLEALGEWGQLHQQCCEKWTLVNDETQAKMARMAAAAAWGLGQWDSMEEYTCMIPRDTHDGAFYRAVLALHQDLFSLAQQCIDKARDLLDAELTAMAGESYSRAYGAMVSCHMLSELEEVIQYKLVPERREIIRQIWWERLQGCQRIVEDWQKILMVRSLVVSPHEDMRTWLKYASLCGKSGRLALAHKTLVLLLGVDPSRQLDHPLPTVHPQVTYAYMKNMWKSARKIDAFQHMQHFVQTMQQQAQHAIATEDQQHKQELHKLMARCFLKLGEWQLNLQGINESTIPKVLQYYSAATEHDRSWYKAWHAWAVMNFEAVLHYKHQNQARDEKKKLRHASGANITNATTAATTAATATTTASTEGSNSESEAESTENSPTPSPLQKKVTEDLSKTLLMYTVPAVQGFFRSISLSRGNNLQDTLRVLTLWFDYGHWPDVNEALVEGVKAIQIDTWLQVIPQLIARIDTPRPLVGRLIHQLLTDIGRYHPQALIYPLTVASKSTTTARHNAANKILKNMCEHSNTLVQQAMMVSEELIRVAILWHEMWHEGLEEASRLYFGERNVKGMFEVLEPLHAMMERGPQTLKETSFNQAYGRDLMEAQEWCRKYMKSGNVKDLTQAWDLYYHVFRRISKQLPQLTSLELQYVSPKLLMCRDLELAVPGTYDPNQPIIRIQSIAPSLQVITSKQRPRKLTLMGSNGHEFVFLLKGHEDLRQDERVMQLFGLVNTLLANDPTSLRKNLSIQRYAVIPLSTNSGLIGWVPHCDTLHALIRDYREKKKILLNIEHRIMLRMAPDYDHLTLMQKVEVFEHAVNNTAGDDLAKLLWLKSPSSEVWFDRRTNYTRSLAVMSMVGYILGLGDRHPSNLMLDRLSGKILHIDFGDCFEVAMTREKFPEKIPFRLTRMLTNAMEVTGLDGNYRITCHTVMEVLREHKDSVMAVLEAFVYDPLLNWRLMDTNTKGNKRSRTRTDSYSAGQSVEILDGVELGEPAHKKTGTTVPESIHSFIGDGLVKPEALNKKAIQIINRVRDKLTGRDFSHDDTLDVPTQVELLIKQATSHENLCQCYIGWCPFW

Row | SMILES | IC50 (Recombinant mTOR (FRAP1)) | IC50 [1] | inhibition at 1 µM (Recombinant mTOR (FRAP1)) | inhibition at 1 µM [1]
1 | C[C@@H]1OCCN(c2nc(Oc3ccc(C(=O)N(C)C)cc3)nc(-c3cnc(N)s3)n2)[C@H]1C [Compound 10142, 4-(4-(2-aminothiazol-5-yl)-6-((2S,3S)-2,3-dimethylmorpholino)-1,3,5-triazin-2-yloxy)-N,N-dimethylbenzamide] | < 1000 nM | > 10000 nM | – | –
2 | CN(C)C(=O)c1ccc(Oc2nc(-c3cccc4[nH]ncc34)nc(N3[C@@H]4CC[C@H]3COC4)n2)cc1 [Compound 10174, 4-((4-((1R,5S)-3-oxa-8-azabicyclo[3.2.1]octan-8-yl)-6-(1H-indazol-4-yl)-1,3,5-triazin-2-yl)oxy)-N,N-dimethylbenzamide] | – | > 1000 nM | < 50% | –
3 | CN(C)C(=O)c1ccc(Oc2nc(-c3cnc(N)s3)nc(N3CCNC(=O)C3)n2)cc1 [Compound 10072, 4-((4-(2-Aminothiazol-5-yl)-6-(3-oxopiperazin-1-yl)-1,3,5-triazin-2-yl)oxy)-N,N-dimethylbenzamide] | – | – | < 50% | < 50%
4 | C[C@H]1COCCN1c1nc(Oc2ccc(C(=O)N(C)C)cc2F)nc(-c2ccc3[nH]ccc3c2)n1 [Compound 10100, (S)-4-((4-(1H-indol-5-yl)-6-(3-methylmorpholino)1,3,5-triazin-2-yl)oxy)3-fluoro-N,N-dimethylbenzamide] | < 1000 nM | < 1000 nM | > 50% | –
5 | C[C@@H]1CN(c2nc(Oc3ccc(C(=O)N(C)C)cc3)nc(-c3cnc(N)s3)n2)CCO1 [Compound 10073, (R)-4-((4-(2-Aminothiazol-5-yl)-6-(2-methylmorpholino)-1,3,5-triazin-2-yl)oxy)-N,N-dimethylbenzamide] | < 1000 nM | < 1000 nM | > 50% | > 50%
6 | CN(C)C(=O)c1ccc(Oc2nc(-c3cnc(N)s3)nc(N3CCOc4ccccc43)n2)cc1 [Compound 10029, 4-(4-(2-aminothiazol-5-yl)-6-(2H-benzo[b][1,4]oxazin-4(3H)-yl)-1,3,5-triazin-2-yloxy)-N,N-dimethylbenzamide] | < 1000 nM | > 1000 nM | > 50% | < 50%
7 | CN(C)C(=O)C1CCC(Oc2nc(-c3ccc4[nH]ccc4c3)nc(N3CCO[C@@H]4CCC[C@H]43)n2)CC1 (stereo partly drawn) [Compound 10150, (1S,4s)-4-(4-((4aR,7aR)-hexahydrocyclopenta[b][1,4]oxazin-4(4aH)-yl)-6-(1H-indol-5-yl)-1,3,5-triazin-2-yloxy)-N,N-dimethylcyclohexanecarboxamide] | > 10000 nM | – | – | < 50%
8 | CN(C)C(=O)c1ccc(Oc2nc(-c3cnc(N)s3)nc(N3CCSCC3)n2)cc1 [Compound 10118, 4-(4-(2-aminothiazol-5-yl)-6-thiomorpholino-1,3,5-triazin-2-yloxy)-N,N-dimethylbenzamide] | > 3000 nM | > 1000 nM | > 50% | –
9 | C[C@H]1COCCN1c1nc(Oc2ccc(C(=O)N(C)C)cc2)nc(-c2cnc(N)s2)n1 [Compound 10005, (S)-4-(4-(2-aminothiazol-5-yl)-6-(3-methylmorpholino)-1,3,5-triazin-2-yloxy)-N,N-dimethylbenzamide] | < 1000 nM | < 1000 nM | > 50% | –
10 | C[C@@H]1CN(c2nc(Oc3ccc(C(=O)N(C)C)cc3F)nc(-c3ccc4[nH]ncc4c3)n2)[C@H](C)CO1 [Compound 10162, 4-(4-(1H-indazol-5-yl)-6-((2R,5R)-2,5-dimethylmorpholino)-1,3,5-triazin-2-yloxy)-3-fluoro-N,N-dimethylbenzamide] | > 1000 nM | > 10000 nM | – | –
11 | CN(C)C(=O)[C@H]1CC[C@H](Oc2nc(-c3cnc(N)s3)nc(N3CCO[C@H]4CCC[C@@H]43)n2)CC1 [Compound 10145, (1S,4r)-4-(4-(2-aminothiazol-5-yl)-6-((4aS,7aS)-hexahydrocyclopenta[b][1,4]oxazin-4(4aH)-yl)-1,3,5-triazin-2-yloxy)-N,N-dimethylcyclohexanecarboxamide] | > 1000 nM | – | – | < 50%
12 | CNc1ncc(-c2nc(Oc3ccc(C(=O)N(C)C)cc3)nc(N3CCOCC3)n2)s1 [Compound 10007, N,N-dimethyl-4-(4-(2-(methylamino)thiazol-5-yl)-6-morpholino-1,3,5-triazin-2-yloxy)benzamide] | < 1000 nM | > 1000 nM | > 50% | –
13 | C[C@H]1CN(c2nc(Oc3ccc(C(=O)N(C)C)cc3)nc(-c3cnc(N)s3)n2)[C@@H](C)CO1 [Compound 10077, 4-((4-(2-Aminothiazol-5-yl)-6-((2S,5S)-2,5-dimethylmorpholino)-1,3,5-triazin-2-yl)oxy)-N,N-dimethylbenzamide] | < 1000 nM | < 1000 nM | – | > 50%
14 | C[C@H]1CN(c2nc(Oc3ccc(C(=O)N(C)C)cc3F)nc(-c3cnc(N)s3)n2)[C@@H](C)CO1 [Compound 10153, 4-(4-(2-aminothiazol-5-yl)-6-((2S,5S)-2,5-dimethylmorpholino)-1,3,5-triazin-2-yloxy)-3-fluoro-N,N-dimethylbenzamide] | < 1000 nM | < 1000 nM | – | < 50%
15 | CNC(=O)c1ccc(Oc2nc(-c3cnc(N)s3)nc(N3CCOCC3)n2)cc1 [Compound 10193, 4-((4-(2-aminothiazol-5-yl)-6-morpholino-1,3,5-triazin-2-yl)oxy)-N-methylbenzamide] | – | < 1000 nM | < 50% | –
16 | CN(C)C(=O)c1ccc(Oc2nc(-c3cnc(N)s3)nc(N3CCO[C@@H]4CCC[C@H]43)n2)cc1 [Compound 10132, 4-(4-(2-aminothiazol-5-yl)-6-((4aR,7aR)-hexahydrocyclopenta[b][1,4]oxazin-4(4aH)-yl)-1,3,5-triazin-2-yloxy)-N,N-dimethylbenzamide] | < 1000 nM | < 1000 nM | > 50% | < 50%
17 | C[C@@H]1CN(c2nc(Oc3ccc(C(=O)N(C)C)cc3F)nc(-c3cnc(N)s3)n2)C[C@H](C)O1 [Compound 10069] | < 1000 nM | > 1000 nM | – | –
18 | CN(C)C(=O)c1ccc(Oc2nc(-c3cnc(N)s3)nc(N3CCCOCC3)n2)cc1 [Compound 10192, 4-((4-(2-aminothiazol-5-yl)-6-(1,4-oxazepan-4-yl)-1,3,5-triazin-2-yl)oxy)-N,N-dimethylbenzamide] | > 1000 nM | > 1000 nM | < 50% | –
19 | Nc1ccc(-c2nc(CO)nc(N3CCOCC3)n2)cn1 [Compound 10176, (4-(6-aminopyridin-3-yl)-6-morpholino-1,3,5-triazin-2-yl)methanol] | – | < 1000 nM | < 50% | –
20 | CN(C)C(=O)c1ccc(Oc2nc(-c3cnc(N)s3)nc(N3CCS(=O)(=O)CC3)n2)cc1 [Compound 10123] | – | – | < 50% | < 50%
21 | CC[C@@H]1COCCN1c1nc(Oc2ccc(C(=O)N(C)C)cc2)nc(-c2cnc(N)s2)n1 [Compound 10082, (R)-4-((4-(2-Aminothiazol-5-yl)-6-(3-ethylmorpholino)-1,3,5-triazin-2-yl)oxy)-N,N-dimethylbenzamide] | – | – | < 50% | < 50%
22 | C[C@H]1COCCN1c1nc(Oc2ccc(C(=O)N(C)C)cc2F)nc(-c2cnc(N)s2)n1 [Compound 10010, (S)-4-(4-(2-aminothiazol-5-yl)-6-(3-methylmorpholino)-1,3,5-triazin-2-yloxy)-3-fluoro-N,N-dimethylbenzamide] | < 1000 nM | < 1000 nM | > 50% | > 50%

Source: patent US9630958B2, “Triazine compounds” (Sphaera Pharma Pte. Ltd., priority 2012, dated 2017)
